# Laboratory results taken from patent US7144867B2, “Anticancer glycoside compounds” (priority 2004, dated 2006).
# Legend:
# p27 = assay: Western blotting, p27 in AsPC-1 cells; type: cell-based, human; settings: 4 μg/mL (FIG. 5)
# Experimental: (§1) Western blotting. Cells were seeded into flasks and cultured to 50% to 60% confluence for 24 hours. Cells were then placed in serum-free medium with or without 4 μg/mL frondoside A for periods of 0, 24, 48 and 72 hours respectively. Proteins were extracted from attached and floating cells in lysis buffer containing 4% SDS. Protein concentrations were determined using the bicinchoninic acid assay with BSA as standard. Western blotting was carried out. In brief, equal amounts of protein in the cell lysates were separated on 15% SDS-PAGE and the proteins were transferred onto nitrocellulose membranes. After blocking non-specific sites with dried milk, membranes were incubated with the appropriate dilution of primary antibody. Membranes were then incubated with a horseradish peroxidase conjugated secondary antibody. Proteins were detected using an enhanced chemiluminescence detection system.
# AsPC-1 cells [1] = assay: Annexin V assay; type: cell-based, human; settings: 4 μg/mL, within 3 hours
# Experimental: Annexin V assay. […] The cells were then rinsed with PBS and 500 μL of assay buffer once. Then, 200 μL of assay buffer, 4 μL of annexin-V FITC, and 20 μL of propidium iodide were added to each coverslip. The coverslip were then incubated at room temperature for 15 min in the dark and washed once with PBS. Cells were finally viewed under fluorescence microscope using a dual filter set for FITC and rhodamine, and pictures were taken using a Kodak DC 120 digital zoom camera (Eastman Kodak Company, Rochester, N.Y.).
# AsPC-1 cells [2] = assay: Morphological studies (apoptosis); type: cell-based, human; settings: 4 μg/mL, within 24 hours
# Experimental: Morphological studies. The photomicrographs of cell morphological changes were taken with a Kodak DC 120 digital zoom camera under an inverted microscope (400×) following treatment with or without 4 μg/mL frondoside A for different time periods from 24 to 72 hours.
# Bax = assay: Western blotting, Bax in AsPC-1 cells; type: cell-based, human; settings: 4 μg/mL (FIG. 4)
# Experimental: as §1
# AsPC-1 cells [3] = assay: 3H-methyl thymidine incorporation (cell proliferation assay); type: cell-based, human
# Experimental: (§2) Cell culture. The poorly differentiated human pancreatic cancer line AsPC-1 was purchased from the American Type Culture Collection (ATCC, Manassas, Va., USA). Cells were cultured in MEM medium supplemented with penicillin G (100 U/mL), streptomycin (100 U/mL) and 10% FBS at 37° C. in humidified air with 5% CO2. Cells were harvested by incubation in trypsin-EDTA solution for 10–15 minutes. Cells were then centrifuged at 300×g for 5 minutes and cell pellets were suspended in fresh culture medium prior to seeding into culture flasks or plates.
# (§3) Cell proliferation assay. Cell growth was analyzed by ^3H-methyl thymidine incorporation and cell counting. Following treatment of pancreatic cancer cells with a series of concentrations of frondoside A from 1 μg/mL to 16 μg/mL, cellular DNA synthesis was assayed by adding ^3H-methyl thymidine at 0.5 μLCi/well. After 2 hours incubation, the cells were washed twice with PBS, precipitated with 10% TCA for two hours, and solubilized from each well with 0.5 ml of 0.4 N NaOH. Incorporation of ^3H-methyl thymidine into DNA was measured by adding scintillation liquid and counting in a scintillation counter (LKB BackBeta, Wallac, Turku, Finland). For cell counting, cells were seeded in 12 wells plates and cultured with serum-free medium for 24 hours prior to frondoside A treatment and then switched to serum-free medium with or without 4 μg/mL frondoside A for the respective treatment time points (24, 48 and 72 hours). The cells were removed from the plate by trypsinization to produce a single cell suspension for cell counting. The cells were counted using Z1-Coulter Counter (Luton, UK).
# AsPC-1 cells [4] = assay: TUNEL assay; type: cell-based, human; settings: 4 μg/mL, 72 hours; control 2.4%, P<0.001
# Experimental: Terminal deoxynucleotidyl transferase-mediated deoxyuridine triphosphate nick-end labeling (TUNEL) assay. The assay was carried out for terminal incorporation of fluorescein 12-dUTP by terminal deoxynucleotidyl transferase into fragmented DNA in cancer cells (TUNEL assay kits, Promega, Madison, Wis.). Cells were cultured to 50%–60% confluence in T75 flasks in serum-free conditions for 24 hours and then treated with or without 4 μg/mL Frondoside A for 72 hours. Cells were then trypsinized and fixed in 1% methanol-free formaldehyde-PBS for 15 minutes. At the end of treatment, cells were harvested with trypsin-EDTA solution to produce a single cell suspension. Cells were then pelleted by centrifugation and washed twice with PBS. Cell pellets were suspended in 0.5 ml PBS and fixed in ice-cold 70% ethanol at 4° C. Fixed cells were centrifuged at 300×g for 10 minutes and pellets were washed with PBS. After resuspension with 1 ml PBS, cells were incubated with 10 μL of RNase I (10 mg/mL) and 100 μL of propidium iodide (400 μg/mL; Sigma) and shaken for 1 hour at 37° C. in the dark. Samples were analyzed by flow cytometry. Laser flow cytometry was used to quantify the green fluorescence of fluorescein-12-dUTP incorporated against the red fluorescence of propidium iodide.
# caspase 9 = assay: Western blotting, caspase 9 in AsPC-1 cells; type: cell-based, human; settings: 4 μg/mL, time-dependent (FIG. 3)
# Experimental: as §1
# [5] = test system: angiogenesis in the animal; assay: Treatment of animals, anti-angiogenic evaluation (Example 6); type: in vivo; settings: contemplated; range of appropriate doses
# Experimental: Frondoside A or B is evaluated for anti-angiogenic (e.g., for research, drug screening or therapeutic purposes) in live animals. Animals (e.g., having or modeling a disease characterized by unwanted angiogenesis) are treated with a range of appropriate doses of Frondoside A or B. Exemplary dosages and dosage schedules include, but are not limited to, those described herein.
# cancer cells = assay: Anti-cancer / apoptotic promoting activity, method not described; settings: no test described for Frondoside B
# AsPC-1 cells [6] = assay: Cell proliferation by cell counting; type: cell-based, human; settings: 4 μg/mL
# Experimental: as §2
# as §3, with “For cell counting, cells were seeded in 12 wells plates and cultured with serum-free medium for 24 hours prior to frondoside A treatment and then switched to serum-free medium with or without 4 μg/mL frondoside A for the respective treatment time points (24, 48 and 72 hours). The cells were removed from the plate by trypsinization to produce a single cell suspension for cell counting.” left out
# caspase 7 = assay: Western blotting, caspase 7 in AsPC-1 cells; type: cell-based, human; settings: 4 μg/mL, time-dependent (FIG. 3)
# Experimental: as §1
# Mcl-1 = assay: Western blotting, Mcl-1 in AsPC-1 cells; type: cell-based, human; settings: 4 μg/mL, time-dependent (FIG. 4)
# Experimental: as §1
# Bcl-2 = assay: Western blotting, Bcl-2 in AsPC-1 cells; type: cell-based, human; settings: 4 μg/mL, time-dependent (FIG. 4)
# Experimental: as §1
smiles,measurement,setting,value
"COC1C(O)C(CO)OC(OC2C(O)COC(OC3C(C)OC(OC4C(OC5CCC6(C)C7CCC89C(=O)OC(C)(CCCC(C)C)C8C(OC(C)=O)CC9(C)C7=CCC6C5(C)C)OCC(OS(=O)(=O)[O-])C4O)C(OC4OCC(O)C(O)C4O)C3O)C2O)C1O.[Na+] [Frondoside A, 3-O-methyl-β-D-glucopyranosyl-(1→3)-β-D-xylopyranosyl-(1→4)-[β-D-xylopyranosyl-(1→2)]-β-D-quinovopyranosyl-(1→2)-4-O-sodium sulfate-β-D-xylopyranosyl-3-O-holost-7(8)-en-3β-ol-16β-O-acetate]",expression of p27,p27,not changed
same,Annexin V binding,AsPC-1 cells [1],Annexin V binding was observed
same,morphological changes,AsPC-1 cells [2],marked morphological changes characteristic of apoptosis
same,concentrations of the pro-apoptotic protein Bax,Bax,increased
same,reduction of incorporation of 3H-methyl thymidine into DNA,"AsPC-1 cells [3]; 4 μg/mL, within 24 hours",approximately 50%
same,inhibition of thymidine incorporation,"AsPC-1 cells [3]; AsPC-1 cells, 1 μg/mL to 16 μg/mL, concentration-dependent (FIG. 1)",marked inhibition of thymidine incorporation
same,concentrations causing cytotoxicity (cell necrosis),AsPC-1 cells [3]; immediate necrosis of cells,higher than 16 μg/mL
same,TUNEL staining,AsPC-1 cells [4],36.1%
same,activation of caspase 9,caspase 9,reduction in the amounts of the respective procaspase forms
same,angiogenesis in the animal,[5],inhibits angiogenesis
same,apoptotic promoting activity in cancer cells,cancer cells,apoptotic promoting activity
same,cell number compared to control,AsPC-1 cells [6]; 48 and 72 hours,marked and progressive decrease in cell number
same,cell number compared to control,AsPC-1 cells [6]; first 24 hours,no obviously effect
same,activation of caspase 7,caspase 7,reduction in the amounts of the respective procaspase forms
same,expression of Mcl-1,Mcl-1,decreased expression
same,expression of Bcl-2,Bcl-2,decreased expression
